{
  "source": "patent US10265329B2",
  "about": "“Altering steroid metabolism for treatment of steroid-dependent disease” (THE CLEVELAND CLINIC FOUNDATION, priority 2015, dated 2019)",
  "key": {"wild-type AR (LAPC4)": {"target": "T1, wild-type AR (LAPC4) (Homo sapiens, UniProt P10275)", "T1 construct": "endogenous in cells; host or cells: LAPC4", "T1 sequence (P10275 1-920)": "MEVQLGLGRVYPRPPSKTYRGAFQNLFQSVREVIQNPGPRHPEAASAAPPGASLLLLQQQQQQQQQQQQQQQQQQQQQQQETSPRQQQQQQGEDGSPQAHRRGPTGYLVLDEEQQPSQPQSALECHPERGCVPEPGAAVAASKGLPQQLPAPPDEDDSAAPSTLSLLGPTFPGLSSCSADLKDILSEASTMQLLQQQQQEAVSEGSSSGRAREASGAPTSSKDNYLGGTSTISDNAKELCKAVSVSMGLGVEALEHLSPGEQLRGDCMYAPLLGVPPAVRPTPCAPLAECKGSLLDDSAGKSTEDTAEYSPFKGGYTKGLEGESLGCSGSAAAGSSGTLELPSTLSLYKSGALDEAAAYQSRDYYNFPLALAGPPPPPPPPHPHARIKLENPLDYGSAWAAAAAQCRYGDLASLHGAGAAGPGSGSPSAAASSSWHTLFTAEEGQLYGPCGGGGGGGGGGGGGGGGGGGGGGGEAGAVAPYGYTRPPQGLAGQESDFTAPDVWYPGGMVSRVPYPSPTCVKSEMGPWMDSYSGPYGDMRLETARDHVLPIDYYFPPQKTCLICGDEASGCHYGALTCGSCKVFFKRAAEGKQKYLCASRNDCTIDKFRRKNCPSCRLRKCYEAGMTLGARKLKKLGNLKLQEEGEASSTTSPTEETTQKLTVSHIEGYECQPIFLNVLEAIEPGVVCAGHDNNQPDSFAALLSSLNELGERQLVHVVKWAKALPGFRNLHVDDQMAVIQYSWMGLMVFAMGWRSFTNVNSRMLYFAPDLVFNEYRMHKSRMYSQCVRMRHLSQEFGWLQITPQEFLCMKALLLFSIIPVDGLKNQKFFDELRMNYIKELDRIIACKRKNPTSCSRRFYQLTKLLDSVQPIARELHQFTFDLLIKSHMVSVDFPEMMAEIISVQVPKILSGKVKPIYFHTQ", "assay": "AR competition assay with [3H]-R1881 in LAPC4 cells", "type": "binding", "conditions": "for affinity for wild-type AR: [3H]-R1881, 30 min", "protocol": "Cells were cultured in serum-free medium for 48 h and then treated with [^3H]-R1881 and the indicated concentrations of D4A, Abi, enzalutamide, R1881 or bicalutamide for 30 min. Cells were washed with 1×PBS 4 times and 0.9% NaCl solution twice before lysis with RIPA buffer.\nCells were starved with phenol red-free and serum free-medium for at least 48 h and then treated with [^3H]-R1881 and the indicated concentrations of drugs for 30 min. Cells were washed thoroughly with PBS and then lysed with […]."}, "SRD5A": {"target": "T2, SRD5A (Homo sapiens, UniProt P18405)", "T2 construct": "endogenous in cells; host or cells: LAPC4", "T2 sequence (P18405 1-259)": "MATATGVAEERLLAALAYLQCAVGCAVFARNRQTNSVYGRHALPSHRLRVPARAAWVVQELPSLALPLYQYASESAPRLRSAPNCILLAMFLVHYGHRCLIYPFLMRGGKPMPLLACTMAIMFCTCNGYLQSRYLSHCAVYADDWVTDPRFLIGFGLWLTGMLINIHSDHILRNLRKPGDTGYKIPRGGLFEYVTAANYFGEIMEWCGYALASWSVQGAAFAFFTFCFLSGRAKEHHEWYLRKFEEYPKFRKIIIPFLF", "assay": "Conversion of [3H]-AD to 5α-reduced androgens in LAPC4 cells", "type": "cell-based", "protocol": "Cell Line Metabolism: Cells were seeded and incubated in 12-well plates with 0.2 million cells/well for ˜24 h and then incubated with a mixture of radioactive ([^3H]-labeled) and non-radioactive androgens (final concentration, 100 nM; ˜1,000,000 cpm/well; PerkinElmer, Waltham, Mass.) at 37° C. Aliquots of medium were collected at the indicated times. Collected medium was treated with 1,000 units of β-glucuronidase (Helix pomatia; Sigma-Aldrich) at 65° C. for 2 h, extracted with 860 μL ethyl acetate:isooctane (1:1), and concentrated under nitrogen gas. Xenograft Metabolism: 10^7 LNCaP or VCaP cells were injected subcutaneously with Matrigel into surgically orchiectomized NSG mice that were implanted with 5 mg 90-day sustained-release DHEA pellets (Innovative Research of American, Sarasota, Fla.). Xenografts were harvested when they reached 1000 mm^3, minced, and cultured in DMEM with 10% FBS at 37° C. with mixture of radioactive ([^3H]-labeled) and non-radioactive androgens, or Abi, when they reached 1000 mm^3. Each xenograft was analyzed in triplicate in at least three independent experiments. Aliquots of medium were collected at the indicated times. Collected medium was treated with 1,000 units of β-glucuronidase at 65° C. for 2 h, extracted with 860 μL ethyl acetate:isooctane (1:1), and concentrated under nitrogen gas.\nDried samples were reconstituted in 50% methanol and injected into the HPLC. Steroids and drug metabolites were separated on Kinetex 100×2.1 mm, 2.6 μm particle size C18 reverse-phase column (Phenomenex, Torrance, Calif.) using a methanol/water gradient at 30° C. […] Alternatively, dried samples were applied to plastic-backed silica gel plates and separated by thin-layer chromatography (TLC) using a mobile phase of 3:1 chloroform:ethyl acetate, followed by exposure of the plates to a phosphorimager screen and quantitated with a Storm model 860 phosphorimager (Applied Biosystems, Foster City, Calif.). […] Results are shown as mean±SD.\nCollected medium was treated with β-glucuronidase (Helix pomatia; Sigma-Aldrich), extracted with ethyl acetate:isooctane (1:1), and concentrated under nitrogen gas as described. Li et al., 523, 347-351 (2015).\nDried samples were reconstituted in 50% methanol and separated on Kinetex 100×2.1 mm, 2.6 μm particle size C18 reverse-phase column (Phenomenex, Torrance, Calif.) using a methanol/water gradient at 30° C. […] Results are shown as mean±SD."}},
  "note": "Where two headings read alike, the source gives them in different places.",
  "data": [
    {"smiles": "C[C@]12CC[C@@H](O)C[C@@H]1CC[C@@H]1[C@@H]2CC[C@]2(C)C(c3cccnc3)=CC[C@@H]12", "note": "[Compound 3α-OH-5α-Abi, 17-(3-pyridyl)-5α-androsta-16-ene-3α-ol]", "values": [
      {"measurement": "affinity for wild-type AR", "setting": "wild-type AR (LAPC4)", "value": "lower"},
      {"measurement": "SRD5A inhibition activity relative to D4A", "setting": "SRD5A; LAPC4, [3H]-AD to 5α-dione, 24 hours", "value": "lose SRD5A inhibition activity"}
    ]},
    {"smiles": "C[C@]12CCC(=O)C[C@@H]1CC[C@@H]1[C@@H]2CC[C@]2(C)C(c3cccnc3)=CC[C@@H]12", "note": "[Compound 5α-Abi, 17-(3-pyridyl)-5α-androsta-16-ene-3-one]", "values": [
      {"measurement": "affinity for wild-type AR", "setting": "wild-type AR (LAPC4)", "value": "comparable to that of D4A"},
      {"measurement": "SRD5A inhibition activity relative to D4A", "setting": "SRD5A", "value": "lose SRD5A inhibition activity"}
    ]},
    {"smiles": "C[C@]12CCC(=O)C=C1CC[C@@H]1[C@@H]2CC[C@]2(C)C(c3cccnc3)=CC[C@@H]12", "note": "[Compound D4A, 17-(3-Pyridyl)androsta-4,16-dien-3-one]", "values": [
      {"measurement": "IC50", "setting": "wild-type AR (LAPC4); competition with 0.1 nM [3H]-R1881, read-out: IC50, affinity for wild-type AR", "value": 7.9, "unit": "nM"},
      {"measurement": "block of conversion from AD to 5α-androstanedione and other 5α-reduced androgens", "setting": "SRD5A; 10 μM, LAPC4 cells", "value": "nearly completely blocks"}
    ]}
  ]
}
